Assay results from patent US11649268B2, “Fibronectin-binding peptides for use in tumor or fibrosis diagnosis and therapy” (priority 2016, dated 2023).
“Also recorded” adds a separate entry of the source. Where two headings read alike, the source gives them in different places. Where a SMILES comes first, the peptide text is derived from it. Primed or numbered codes have the meaning given here. Where no end group is shown, it is not given here. The star is where a group is joined. X1 = O=C(O)CN1CCN(CC(=O)O)CCN(C(CCC(=O)NCCN2C(=O)CC(*)C2=O)C(=O)O)CC1; NODAGA′ = NODAGA chelator (maleimide-conjugated) for radiolabelling; Alexa 488 = Alexa Fluor 488 fluorescent dye

How the values were obtained:
[1] = Description: To assess in vitro plasma stability 12 MBq ^111In-[FnBPA5-NODAGA] and ^111In-[scraFnBPA5-NODAGA] were incubated with 400 μL human blood plasma at 37° C. At different time points (0, 0.25, 0.5, 1, 2, 48 and 72 hours) 40 μL of plasma was taken out and precipitated by the addition of 200 μL EtOH, acetonitrile, 0.1% TFA.
[2] = system: PC-3 xenografts
Description: (§1) PC-3 cells (human prostate carcinoma cell line, ACC-465, DSMZ, Braunschweig, Germany) were cultured in Roswell Park Memorial Institute 1640 medium (Amimed, Bioconcept, Switzerland). Cells were cultured as monolayers at 37° C. in a humidified atmosphere containing 5% CO2.
(§2) In vivo experiments were approved by the local veterinarian department and conducted in accordance with the Swiss law for animal protection. The 3-5 weeks-old female CD1 nude mice were purchased from Charles River (Germany). After 5-7 days acclimatisation period, the tumor cells were subcutaneously inoculated in both shoulders of the mice (3*106-1*107 cells in 100-150 μL PBS per side). Experiments were performed 3-4 weeks after inoculation.
SPECT/CT experiments were performed using a 4-head multiplexing multipinhole camera (NanoSPECT/CTplus, Bioscan Inc., Washington D.C., USA). CT scans were performed with a tube voltage of 45 kV and a tube current of […]. SPECT scans at 24, 72 and 96 hours post injection were obtained with an acquisition time of 20-90 sec. per view resulting in a total scanning time of 20-45 min per mouse.
The distribution of ^111In-radiolabeled FnBPA5 peptide injected into the tail vein of a living mouse was monitored by means of SPECT/CT for a period of 96 hours. […] (2.4 nmol, 100 μL PBS) into the tail vein. […] SPECT images were reconstructed using HiSPECT software (Scivis GmbH, Goettingen, Germany). The images were reconstituted and processed with InVivoScope® software (BioscanInc., Washington D.C., USA) and zoom in videos were generated using Adobe Flash.
To visualize additional binding of the tracer to tissues throughout the body, the kidneys were subsequently removed from the sacrificed mice and the scan was repeated.

[3] = in vivo; conditions: female, CD1 nude, mouse, iv, 150 kBq, total radioactivity
Description: as §1, §2
(§3) The tissue-specific peptide pharmacokinetics, particularly in cancer stroma, were assessed in groups of 4 PC-3-bearing mice that were injected with approximately 150 kBq ^111In-FnBPA5 respectively ^111In-scraFnBPA5 (2.4 nmol/[…] PBS) into the tail vein and biodistribution of peptides was analyzed at different time points (1, 4, 24 and 96 hours post injection (p.i. and after sacrification)) by means of percentage of injected activity per gram tissue (% IA/g).

[4] = system: PC-3 xenografts; test: In vivo blocking study with pre-injected unlabeled FnBPA5; set-up: species or system mouse; conditions: for effect of pre-injection of unlabeled FnBPA5 on accumulation: approximately 10-fold excess unlabeled FnBPA5, 4 hour post-injection
Description: (A) Biodistribution of FnBPA5 in PC-3 bearing mice was monitored at different time points in various organs. […] (C) Blocking studies were performed and uptake was analyzed 4 hour post-injection.
as §3

[5] = system: manually pulled relaxed Fn fibers (fibrillar Fn); test: Manually pulled Fn fiber binding assay (confocal microscopy); set-up: species or system human; conditions: for binding to manually pulled Fn fibers (peptide signal): confocal microscopy, peptide signal vs Fn-Cy5
Description: Manually pulled Fn fibers were used as a model system for fibrillar Fn as described previously (W. C. Little, M. L. Smith, U. Ebneter, and V. Vogel, “Assay to mechanically tune and optically probe fibrillar fibronectin conformations from fully relaxed to breakage,” Matrix Biology, vol. 27, no. 5, pp. 451-461, June 2008). Fibers containing 5% of photolabeled Fn-Cy5 were deposited onto a stretchable silicone sheet, relaxed to half of their original length, corresponding to a total 7% molecular strain and after a blocking step with 4% bovine serum albumin in PBS, they were incubated with different concentrations of Alexa488 fluorescently labeled FnBPA5 to obtain a binding curve.
Manually pulled Fn fiber samples were imaged with an Olympus FV1000 confocal microscope using a 40× water immersion objective with a numerical aperture of 0.9. Alexa488-FnBPA5 and Fn-Cy5 channels were imaged with a 512×512 pixel resolution and photomultiplier tube voltage and laser powers were kept constant within an experiment.
Images were analyzed using Fiji-ImageJ and Matlab (MathWorks, Natick, Mass., USA). […] Dark current values were subtracted from images and pixels with intensities below a cutoff threshold and at saturation were excluded from analysis. Approximately 10 fibers were imaged per experimental condition and each of these conditions was done in triplicate. […] Data points were fit using the Hill model assuming non-cooperative binding (using the below equation) and plot using Origin.
To assess binding constant of Alexa488-FnBPA5 and of its scrambled analogue to Fn fibers a fiber stretch assay as described above and before (Little et al., Matrix Biology, vol. 27, no. 5, pp. 451-461, June 2008) was used. Fn fibers are manually pulled from a Fn solution containing 5% fluorophore labeled Fn and deposited onto a silicone membrane. Silicone membranes can then be stretched or relaxed to desired mechanical strain state.
Peptide fluorescence intensity normalized against the Cy5-intensity from the Fn-fibers for different peptide concentrations was assessed. Intensity ratio of 10 μM FnBPA5-488 was defined as saturated and all other intensity ratios were normalized with this factor.

[6] = system: fibrillar Fn in fibroblast ECM; test: Binding to fibrillar Fn in fibroblast-assembled ECM (colocalization); format: cell-based; conditions: normal human dermal fibroblasts, 2 days ECM, 5 μg/ml peptide, 1 hour
Description: Fibroblast ECM samples (FIG. 2C) were acquired with the same microscope using an oil immersion 1.45 NA 60× objective with a pixel resolution of 1024×1024.
To achieve this, normal human dermal fibroblasts (PromoCell, Heidelberg, Germany) were cultured in alpha minimum essential medium (α-MEM) with 10% fetal bovine serum (FBS) from BioWest, Nuaillé, France, and split before reaching confluence. Cells were seeded onto Fn-coated 8-well chambered coverglasses (Lab-Tek, Nalgene Nunc, Thermo Scientific, Waltham, Mass., USA) at a density of 30×10^3 cells per cm^2 and allowed to attach to the surface before medium exchange to medium containing 50 μg/ml unlabeled Fn. Cells were cultured for 48 hours. Fibronectin was then stained using a rabbit polyclonal anti-fibronectin antibody (ab23750, abcam, Cambridge, UK) and 5 μg/ml FnBPA5-Alexa488 respectively scr-FnBPA5-Alexa488 peptide for 1 hour before fixation with a 4% paraformaldehyde solution in PBS. After fixation cells were permeabilized for 10 minutes with PBS containing 0.01% Triton X-100. After a washing step samples were blocked in 4% BSA and 4% donkey serum for 1 hour at room temperature. Samples were then incubated for 1 hour with a donkey anti-rabbit Alexa 546 (Invitrogen) secondary antibody and Phalloidin-633 (Invitrogen, Carlsbad, Calif., USA). Before imaging cell nuclei were stained using DAPI. […]

[7] = target: soluble plasma Fn; test: Fluorescence anisotropy titration (fluorescence polarization); format: binding, human; conditions: 100 nM Alexa-488 peptide in PBS, Fn 0 to 1.4 μM, 20° C.; read-out: dissociation constant Kd to soluble plasma Fn
Description: The binding affinities of Fn to FnBPA5 were determined in three independent measurements by anisotropy titrations in a Cary Eclipse Fluorescence Spectrophotometer (Agilent Technologies) equipped with automated polarizers. FnBPA5 and its scrambled derivative were synthesized with an N-terminal Alexa-488 dye. The anisotropy of 100 nM Alexa-488 labelled peptide was measured in PBS at Fn concentrations ranging from 0 to 1.4 μM. Excitation and emission were at λex 480 nm and λem 520 nm respectively with both slit 10 nm, 20° C., 5 s signal acquisition and g=1.4. The Kd values were determined by fitting the data to a one-site-binding model using Origin 7 (OriginLab Northampton, Mass., USA).
With higher Fn concentration an increasing amount of peptide is bound to Fn leading to a shift in fluorescence anisotropy.

[8] = target: N-terminal Fn fragments (Homo sapiens, UniProt P02751); conditions: literature value, Meenan et al. 2007; read-out: Kd to N-terminal Fn fragments in solution; cited from earlier work
[9] = target: relaxed Fn fibers; test: Displacement assay on manually pulled Fn fibers against FnBPA5-Alexa488; format: binding, human; conditions: cold labeled competitor
Description: Relaxed Fn fibers were incubated with FnBPA5-Alexa488 peptide, washed and then incubated with different concentrations of FnBPA5-In to measure the concentration of competitor.
To assess whether the presence of the chelator for the radiolabeled ^111In-isotope impairs FnBPA5 binding to manually pulled Fn fibers, a displacement assay was performed using ^natIn-FnBPA5 (cold labeled) against FnBPA5-Alexa488.

[10] = 96 hours post injection, 12 MBq, tail vein
[11] = 96 hours post injection, kidneys removed

manually pulled relaxed Fn fibers (fibrillar Fn), sequence (P02751 32-290 limits assumed): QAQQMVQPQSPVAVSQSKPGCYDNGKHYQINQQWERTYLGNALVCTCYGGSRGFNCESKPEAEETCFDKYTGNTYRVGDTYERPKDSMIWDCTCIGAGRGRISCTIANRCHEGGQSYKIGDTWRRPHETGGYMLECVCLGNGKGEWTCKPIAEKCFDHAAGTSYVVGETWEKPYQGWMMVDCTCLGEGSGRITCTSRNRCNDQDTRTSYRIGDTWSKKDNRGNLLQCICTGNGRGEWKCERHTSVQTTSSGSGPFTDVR
soluble plasma Fn, sequence (P02751 32-290 limits assumed): as above
fibrillar Fn in fibroblast ECM, sequence (P02751 32-290 limits assumed): as above
N-terminal Fn fragments, sequence (P02751 52-272 limits assumed): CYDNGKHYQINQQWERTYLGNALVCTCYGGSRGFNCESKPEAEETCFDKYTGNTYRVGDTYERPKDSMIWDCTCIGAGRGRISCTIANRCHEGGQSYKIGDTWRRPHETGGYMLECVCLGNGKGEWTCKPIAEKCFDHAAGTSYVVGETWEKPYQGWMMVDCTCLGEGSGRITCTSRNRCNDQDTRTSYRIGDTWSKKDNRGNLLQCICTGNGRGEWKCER
relaxed Fn fibers, sequence (P02751 95-273 limits assumed): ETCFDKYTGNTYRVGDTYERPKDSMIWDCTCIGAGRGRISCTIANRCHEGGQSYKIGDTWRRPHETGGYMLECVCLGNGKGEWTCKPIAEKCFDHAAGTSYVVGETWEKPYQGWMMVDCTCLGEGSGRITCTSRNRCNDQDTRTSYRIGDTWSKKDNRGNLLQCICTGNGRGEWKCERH

## CC[C@H](C)[C@H](NC(=O)CNC(=O)[C@H](CCCCN)NC(=O)[C@@H](NC(=O)[C@H](CO)NC(=O)[C@H](CCC(=O)O)NC(=O)[C@H](CCC(=O)O)NC(=O)[C@H](CC(=O)O)NC(=O)[C@H](Cc1ccccc1)NC(=O)[C@H](CCC(=O)O)NC(=O)[C@@H](NC(=O)[C@H](CC(C)C)NC(=O)[C@H](CC(N)=O)NC(=O)[C@H](CO)NC(=O)[C@H](CCC(=O)O)NC(=O)[C@@H](NC(=O)[C@@H](NC(=O)[C@@H](NC(=O)[C@H](CCC(N)=O)NC(=O)CNC(=O)CNC(=O)CNC(=O)[C@@H](N)CSC1CC(=O)N(CCNC(=O)CCC(C(=O)O)N2CCN(CC(=O)O)CCN(CC(=O)O)CC2)C1=O)C(C)C)[C@@H](C)O)[C@@H](C)O)C(C)C)[C@@H](C)O)C(=O)N[C@H](C(=O)N[C@H](C(=O)NCC(=O)N[C@@H](C)C(=O)N[C@H](C(=O)N[C@@H](CO)C(=O)N[C@@H](CC(=O)O)C(=O)N[C@@H](Cc1c[nH]cn1)C(=O)N[C@H](C(=O)N[C@H](C(=O)N[C@H](C(=O)N[C@@H](CCC(=O)O)C(=O)N[C@@H](CC(=O)O)C(=O)N[C@H](C(=O)N[C@@H](CCCCN)C(=O)O)[C@@H](C)O)C(C)C)[C@@H](C)O)[C@@H](C)O)C(C)C)[C@@H](C)O)C(C)C (stereo partly drawn) [^111In-FnBPA5, metal not drawn] (H-C(X1)GGGQVTTESNLVEFDEESTKGIVTGAVSDHTTVEDTK-OH; N-terminus and C-terminus assumed)
[1]; human blood plasma, 37° C., after 72 hours
  plasma stability, peptide intact: still intact
[2]; [10]
  SPECT/CT kidney uptake: mainly accumulated in the kidneys
[2]; [11]
  SPECT/CT uptake in other organs after kidney removal: predominant uptake in tumor and liver
[3]; kidney accumulation, kidneys, 1 hour p.i. (maximum)
  tissue uptake at 1 h: 141 ± 18.1 %ID/g
[3]; tumor uptake, PC-3 tumor, 1 h p.i. (maximum)
  tissue uptake at 1 h: 4.74 ± 0.77 %ID/g
[4]
  effect of pre-injection of unlabeled FnBPA5 on accumulation: significant reduction in the uptake of ^111In-FnBPA5 in both liver and tumor
[4]; pre-injection of 100 μg unlabeled FnBPA5, 4 hour post-injection, liver
  uptake decrease in liver by blocking: 58.2%
[4]; pre-injection of 100 μg unlabeled FnBPA5, 4 hour post-injection, tumor
  uptake decrease in tumor tissue by blocking: 35.6%

## CC[C@H](C)[C@H](NC(=O)[C@@H](NC(=O)[C@H](CCC(=O)O)NC(=O)CNC(=O)[C@H](Cc1ccccc1)NC(=O)[C@H](CC(=O)O)NC(=O)[C@@H](NC(=O)[C@H](CCCCN)NC(=O)[C@@H](NC(=O)CNC(=O)[C@@H](NC(=O)[C@H](CC(C)C)NC(=O)[C@H](CC(=O)O)NC(=O)[C@H](CCC(=O)O)NC(=O)[C@H](CCC(N)=O)NC(=O)[C@H](CCC(=O)O)NC(=O)[C@H](CO)NC(=O)CNC(=O)[C@@H](N)CSC1CC(=O)N(CCNC(=O)CCC(C(=O)O)N2CCN(CC(=O)O)CCN(CC(=O)O)CC2)C1=O)[C@@H](C)O)[C@@H](C)O)C(C)C)[C@@H](C)O)C(=O)N[C@H](C(=O)N[C@H](C(=O)N[C@@H](CC(N)=O)C(=O)N[C@@H](CCC(=O)O)C(=O)N[C@@H](C)C(=O)N[C@H](C(=O)N[C@@H](CCC(=O)O)C(=O)N[C@H](C(=O)N[C@H](C(=O)N[C@H](C(=O)N[C@@H](CO)C(=O)NCC(=O)N[C@@H](CO)C(=O)N[C@H](C(=O)N[C@@H](Cc1c[nH]cn1)C(=O)NCC(=O)N[C@H](C(=O)N[C@@H](CCCCN)C(=O)N[C@H](C(=O)O)C(C)C)[C@@H](C)O)[C@@H](C)O)[C@@H](C)O)C(C)C)[C@@H](C)O)[C@@H](C)O)C(C)C)C(C)C (stereo partly drawn) [^111In-scraFnBPA5, metal not drawn, reference compound] (H-C(X1)GSEQEDLTGTKVDFGETIVVNEATETVTSGSTHGTKV-OH; N-terminus and C-terminus assumed)
[2]; mouse, in vivo
  SPECT/CT kidney uptake: mainly accumulated in the kidneys
  SPECT/CT uptake in other organs after kidney removal: no uptake into other tissues was visible
[3]; kidney accumulation
  tissue uptake at 1 h: 164 ± 18.9 %ID/g
[4]
  effect of pre-injection of unlabeled FnBPA5 on accumulation: no significant differences

## scraFnBPA5: Negative control of FnBPA5 with scrambled sequence (SEQ ID NO 296) (CGSEQEDLTGTKVDFGETIVVNEATETVTSGSTHGTKV) [reference compound]
[5]
  binding to manually pulled Fn fibers (peptide signal): within the background noise
[6]
  binding to fibrillar Fn in fibroblast ECM: unspecificly attached to the matrix
[1]
  plasma stability: high stability
[2]; mouse, in vivo
  SPECT/CT kidney uptake: dominant kidney uptake
  SPECT/CT uptake in other organs after kidney removal: does not show any specific uptake in other organs

## CGGGQVTTESNLVEFDEESTKGIVTGAVSDHTTVEDTK [FnBPA5]
[5]
  binding to manually pulled Fn fibers (peptide signal): specific peptide binding; also recorded: significantly higher binding; also recorded: much stronger than the scrambled control derivative
[5]; relaxed fibers, 7% molecular strain, Alexa488-labelled peptide, Hill fit, read-out: dissociation constant Kd to manually pulled relaxed Fn fibers
  Kd: 28 nM
[7]
  Kd: 75 nM
[6]
  binding to fibrillar Fn in fibroblast ECM: specific binding
[1]; 37° C., blood plasma and water, 1 hour time point
  plasma stability: high stability
[2]; [10]
  SPECT/CT kidney uptake: dominant kidney uptake
[2]; [11]
  SPECT/CT uptake in other organs after kidney removal: uptake in tumors and liver
[8]
  Kd: 44.2 nM

## ^natIn-FnBPA5: Cold labeled (natural indium) chelator-conjugated FnBPA5 (C(NODAGA′)GGGQVTTESNLVEFDEESTKGIVTGAVSDHTTVEDTK; also: natural indium complexed by chelator)
[9]
  IC50: 49 nM

## Alexa 488-FnBPA5: FnBPA5 with N-terminal Alexa-488 dye ({Alexa 488}-CGGGQVTTESNLVEFDEESTKGIVTGAVSDHTTVEDTK)
[7]
  Kd: 75 nM
